Measurements reported in the supplement of paper PMC10307832.

Tests used:
Assay in all cases: relative viability (nuclei count vs DMSO), 5 days (fraction); higher = more cells survive
Zosuquidar + Phenformin = compound: O[C@@H](COc1cccc2ncccc12)CN1CCN([C@@H]2c3ccccc3[C@@H]3[C@H](c4ccccc42)C3(F)F)CC1 [Zosuquidar] + N=C(N)NC(=N)NCCc1ccccc1 [Phenformin] (partner 250 µM)
Procedure, shortened: (§1)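 The day after seeding in 1536-well plates, lung cancer cell lines were treated by pin tool with a single drug, or with a fixed anchor-drug dose together with five library-drug doses (not always all listed) in √10 steps. After 5 days, a combined fix-and-stain solution (final 0.05% Triton X-100, 1% formaldehyde, 1 ug/ml Hoechst) was added. Nuclei counted on 4× images gave relative viability as treated counts over vehicle counts, reported as the median of duplicate plates.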

Kobe2602 + Pictilisib = compound: C1=CC(=CC=C1NC(=S)NNC2=C(C=C(C=C2[N+](=O)[O-])C(F)(F)F)[N+](=O)[O-])F [Kobe2602] + CS(=O)(=O)N1CCN(Cc2cc3nc(-c4cccc5[nH]ncc45)nc(N4CCOCC4)c3s2)CC1 [Pictilisib] (partner 1 µM)
Procedure, shortened: as §1

Cabozantinib + Alpelisib = compound: COc1cc2nccc(Oc3ccc(NC(=O)C4(C(=O)Nc5ccc(F)cc5)CC4)cc3)c2cc1OC [Cabozantinib] + Cc1nc(NC(=O)N2CCC[C@H]2C(N)=O)sc1-c1ccnc(C(C)(C)C(F)(F)F)c1 [Alpelisib] (partner 2 µM)
Procedure, shortened: as §1

Kobe2602 + Trametinib = compound: C1=CC(=CC=C1NC(=S)NNC2=C(C=C(C=C2[N+](=O)[O-])C(F)(F)F)[N+](=O)[O-])F [Kobe2602] + CC(=O)Nc1cccc(-n2c(=O)n(C3CC3)c(=O)c3c(Nc4ccc(I)cc4F)n(C)c(=O)c(C)c32)c1 [Trametinib] (partner 0.02 µM)
Procedure, shortened: as §1

Cell Line | relative viability (Zosuquidar + Phenformin; first compound 0.01 µM) | relative viability (Zosuquidar + Phenformin; first compound 0.03162 µM) | relative viability (Zosuquidar + Phenformin; first compound 0.3162 µM) | relative viability (Zosuquidar + Phenformin; first compound 1 µM) | relative viability (Kobe2602 + Pictilisib; first compound 0.2 µM) | relative viability (Kobe2602 + Pictilisib; first compound 0.6325 µM) | relative viability (Kobe2602 + Pictilisib; first compound 6.325 µM) | relative viability (Kobe2602 + Pictilisib; first compound 20 µM) | relative viability (Cabozantinib + Alpelisib; first compound 0.02 µM) | relative viability (Cabozantinib + Alpelisib; first compound 0.06325 µM) | relative viability (Cabozantinib + Alpelisib; first compound 0.2 µM) | relative viability (Cabozantinib + Alpelisib; first compound 0.6325 µM) | relative viability (Cabozantinib + Alpelisib; first compound 2 µM) | relative viability (Kobe2602 + Trametinib; first compound 0.2 µM) | relative viability (Kobe2602 + Trametinib; first compound 0.6325 µM) | relative viability (Kobe2602 + Trametinib; first compound 2 µM) | relative viability (Kobe2602 + Trametinib; first compound 6.325 µM) | relative viability (Kobe2602 + Trametinib; first compound 20 µM) | relative viability (Zosuquidar + Phenformin; first compound 0.1 µM) | relative viability (Kobe2602 + Pictilisib; first compound 2 µM)
HCC-78 | 0.801 | 0.71 | 0.707 | 0.558 | 0.246 | 0.255 | 0.212 | 0.211 | 0.26 | 0.298 | 0.227 | 0.201 | 0.198 | 0.708 | 0.891 | 0.633 | 0.768 | 0.8 | – | –
HCC-366 | 0.61 | 0.674 | 0.718 | 0.575 | 0.0894 | 0.176 | 0.141 | 0.211 | 0.585 | 0.619 | 0.445 | 0.328 | 0.294 | 0.284 | 0.386 | 0.31 | 0.297 | 0.302 | 0.623 | 0.0839
HCC-827 | 0.351 | 0.467 | 0.413 | 0.398 | 1 | 0.932 | 0.981 | 1.18 | 0.977 | 1.04 | – | 0.925 | 0.9 | 0.546 | 0.546 | 0.571 | 0.537 | 0.558 | 0.333 | 0.898
HOP-62 | 0.7 | 0.637 | 0.719 | 0.684 | 0.72 | 1.09 | 0.783 | 0.782 | 0.981 | 1.02 | 1.43 | 0.807 | 1.08 | 0.446 | 0.39 | 0.355 | 0.415 | 0.415 | 0.688 | 0.717
IA-LM | – | – | – | – | 0.369 | 0.306 | 0.318 | 0.317 | 0.874 | 0.876 | 0.928 | 0.941 | 0.952 | – | – | – | – | – | – | 0.338
LC-2-ad | 0.584 | 0.561 | 0.626 | 0.55 | 0.614 | 0.54 | 0.441 | 0.477 | 0.869 | 0.976 | 0.834 | 0.659 | 0.45 | 0.931 | 0.895 | 0.849 | 0.936 | 0.89 | 0.576 | 0.459
LCLC-97TM1 | 0.409 | 0.442 | 0.454 | 0.445 | 0.195 | 0.18 | 0.15 | 0.167 | – | 0.259 | 0.264 | 0.284 | 0.297 | 0.184 | 0.186 | – | 0.207 | 0.257 | 0.46 | 0.185
LCLC-103H | 0.306 | 0.314 | 0.356 | 0.331 | 0.596 | 0.696 | 0.618 | 0.638 | 1.08 | 0.859 | 0.951 | 0.861 | 0.752 | 0.651 | 0.731 | 0.674 | 0.73 | 0.644 | 0.255 | 0.62
LK-2 | 0.413 | 0.412 | 0.67 | 0.475 | 0.642 | 0.597 | 0.542 | 0.609 | – | 1.22 | 1.08 | 1.23 | 0.856 | 0.839 | 0.856 | 0.744 | 0.631 | 0.852 | 0.549 | 0.534
